This note sets out measurements from patent US7179823B1, “5-membered n-heterocyclic compounds with hypoglycemic and hypolipidemic activity” (Takeda Pharmaceutical Company Limited, priority 1999, dated 2007).

For `O=C(O)CCc1cn(Cc2ccc(OCc3ccc4ccccc4n3)cc2)nc1-c1ccccc1` [Example 285, 3-[3-phenyl-1-[4-(2-quinolylmethoxy)benzyl]-1H-pyrazol-4-yl]propionic acid], the melting point (commonly the temperature, or range, at which the solid turns liquid) fell in the range of 147 to 148 °C. The value for `CCOc1nn(Cc2ccc(OCc3nc(-c4ccccc4)oc3C)cn2)cc1CCC(=O)O` [Example 258, 3-[3-ethoxy-1-[5-(5-methyl-2-phenyl-4-oxazolylmethoxy)-2-pyridylmethyl]-1H-pyrazol-4-yl]propionic acid] was 133 to 134 °C; that for `CCOC(=O)CCc1cn(Cc2ccc(OCc3cn4c(-c5ccccc5)cccc4n3)cc2)nc1OCC` [Example 231, ethyl 3-[3-ethoxy-1-[4-(5-phenylimidazo[1,2-a]pyridin-2-ylmethoxy)benzyl]-1H-pyrazol-4-yl]propionate] was 104 to 105 °C; that for `O=C(O)CCc1cn(Cc2ccc(OCc3ccc(-c4ccccc4)cn3)cc2)cc1-c1ccccc1` [Example 279, 3-[1-[4-(5-phenyl-2-pyridylmethoxy)benzyl]-4-phenyl-3-pyrrolyl]propionic acid] was 169 to 170 °C.

Turning to `CCOc1nn(Cc2cncc(OCc3nc(-c4ccccc4)oc3C)c2)cc1CCC(=O)O` [Example 213, 3-[3-ethoxy-1-[5-(5-methyl-2-phenyl-4-oxazolylmethoxy)-3-pyridylmethyl]-1H-pyrazol-4-yl]propionic acid], the melting point lay in the range of 133 to 134 °C. The value for `Cc1oc(-c2ccccc2)nc1COc1ccc(Cn2cc(CCC(=O)O)c(-c3ccccc3)n2)nc1` [Example 306, 3-[1-[5-(5-methyl-2-phenyl-4-oxazolylmethoxy)-2-pyridylmethyl]-3-phenyl-1H-pyrazol-4-yl]propionic acid] was 175 to 176 °C. The value for `CCOc1nn(Cc2ccc(OCc3cn4c(-c5ccccc5)cccc4n3)cc2)cc1CCC(=O)O` [Example 232, 3-[3-ethoxy-1-[4-(5-phenylimidazo[1,2-a]pyridin-2-ylmethoxy)benzyl]-1H-pyrazol-4-yl]propionic acid] was 160 to 161 °C; that for `Cc1oc(-c2ccccc2)nc1COc1nn(Cc2ccc(Oc3ccccc3)cc2)cc1/C=C/C(=O)O` [Example 333, (E)-3-[3-(5-methyl-2-phenyl-4-oxazolylmethoxy)-1-(4-phenoxybenzyl)-1H-pyrazol-4-yl]propenoic acid] was 210 to 211 °C; that for `CCOc1nn(Cc2ccc(OCc3nc(-c4ccco4)oc3C)nc2)cc1CC(=O)O` [Example 264, 3-ethoxy-1-[6-[2-(2-furyl)-5-methyl-4-oxazolylmethoxy]-3-pyridylmethyl]-1H-pyrazol-4-ylacetic acid] was 155 to 156 °C.

For `CCOc1nn(Cc2ccc(OCn3nnc4ccccc43)cc2)cc1CCC(=O)O` [Example 229, 3-[1-[4-(1H-benzotriazol-1-ylmethoxy)benzyl]-3-ethoxy-1H-pyrazol-4-yl]propionic acid], the melting point is 136 to 137 °C. With `O=C(O)CCc1cn(Cc2ccc(OCc3ccsc3)cc2)cc1-c1ccccc1` [Example 22, 3-[4-phenyl-1-[4-(3-thienylmethoxy)benzyl]-3-pyrrolyl]propionic acid] the figure was 118 to 119 °C. As for `Cc1oc(-c2ccccc2)nc1COc1ccc(Cn2cc(/C=C/C(=O)O)c(-c3ccccc3)c2)cc1` [Example 5, (E)-3-[1-[4-(5-methyl-2-phenyl-4-oxazolylmethoxy)benzyl]-4-phenyl-3-pyrrolyl]propenoic acid], the melting point was 154 to 155 °C. The value for `CCOc1nn(Cc2ccc(OCc3cn4c(OCC)cccc4n3)cc2)cc1CCC(=O)O` [Example 227, 3-[3-ethoxy-1-[4-(5-ethoxyimidazo[1,2-a]pyridin-2-ylmethoxy)benzyl]-1H-pyrazol-4-yl]propionic acid] was 197 to 198 °C. The value for `CCOc1cc(Cn2cc(CCC(=O)O)c(-c3ccccc3)c2)cc(OCc2csc(-c3cnccn3)n2)c1` [Example 73, 3-[1-[3-ethoxy-5-[2-(2-pyrazinyl)-4-thiazolylmethoxy]benzyl]-4-phenyl-3-pyrrolyl]propionic acid] was 97 to 98 °C. The value for `Cc1oc(-c2ccccc2)nc1COc1ccc2cc(Cn3cc(CCC(=O)O)c(-c4ccccc4)c3)ccc2c1` [Example 54, 3-[1-[6-(5-methyl-2-phenyl-4-oxazolylmethoxy)-2-naphthylmethyl]-4-phenyl-3-pyrrolyl]propionic acid] was 122 to 123 °C.

`O=C(O)CCc1cn(Cc2ccc(OCc3ccncc3)cc2)cc1-c1ccccc1` [Example 13, 3-[4-phenyl-1-[4-(4-pyridylmethoxy)benzyl]-3-pyrrolyl]propionic acid] yielded a melting point of 124 to 125 °C. The value for `COc1cc(COc2nn(Cc3ccc(Oc4ccccc4)cc3)cc2C(=O)O)ccc1OCc1nc(-c2ccco2)oc1C` [Example 322, 3-[4-[2-(2-furyl)-5-methyl-4-oxazolylmethoxy]-3-methoxybenzyloxy]-1-(4-phenoxybenzyl)-1H-pyrazole-4-carboxylic acid] was 153 to 154 °C; that for `CN(CCOc1ccc(Cn2cc(CCC(=O)O)c(-c3ccccc3)c2)cc1)c1ccccn1` [Example 49, 3-[1-[4-[2-[N-methyl-N-(2-pyridyl)amino]ethoxy]benzyl]-4-phenyl-3-pyrrolyl]propionic acid] was 110 to 111 °C. On to `CCOc1nn(Cc2cc(OCc3nc(-c4ccccc4)oc3C)no2)cc1CCC(=O)O` [Example 219, 3-[3-ethoxy-1-[3-(5-methyl-2-phenyl-4-oxazolylmethoxy)-5-isoxazolylmethyl]-1H-pyrazol-4-yl]propionic acid], for which the melting point is 142 to 143 °C.

For `CCOc1nn(Cc2ccc(OCc3ccc4ccccc4n3)nc2)cc1CCC(=O)O` [Example 252, 3-[3-ethoxy-1-[6-(2-quinolylmethoxy)-3-pyridylmethyl]-1H-pyrazol-4-yl]propionic acid], the melting point was in the range of 133 to 134 °C.

With `CCOc1cc(Cn2cc(CCC(=O)O)c(OCC)n2)ccc1OCc1nc(-c2ccccc2)oc1C` [Example 217, 3-[3-ethoxy-1-[3-ethoxy-4-(5-methyl-2-phenyl-4-oxazolylmethoxy)benzyl]-1H-pyrazol-4-yl]propionic acid], the melting point was in the range of 105 to 106 °C. The value for `O=C(O)c1cn(Cc2ccc(OCc3ccccc3)cc2)nc1-c1ccccc1` [Example 92, 1-(4-benzyloxybenzyl)-3-phenyl-1H-pyrazol-4-carboxylic acid] was 152 to 153 °C; that for `O=C(O)CCc1cn(Cc2ccc(OCc3ccoc3)cc2)cc1-c1ccccc1` [Example 18, 3-[1-[4-(3-furylmethoxy)benzyl]-4-phenyl-3-pyrrolyl]propionic acid] was 110 to 111 °C. The value for `Cn1c(COc2ccc(Cn3cc(CCC(=O)O)c(-c4ccccc4)n3)cc2)nc2ccccc21` [Example 292, 3-[1-[4-(1-methyl-1H-benzimidazol-2-ylmethoxy)benzyl]-3-phenyl-1H-pyrazol-4-yl]propionic acid] was 225 to 226 °C; that for `CCOC(=O)c1cn(Cc2ccc(OCc3ccccc3)cc2)nc1-c1ccc(F)cc1` [Example 280, ethyl 1-(4-benzyloxybenzyl)-3-(4-fluorophenyl)-1H-pyrazole-4-carboxylate] was 103 to 104 °C.
